Source: patent US12391643B2, “Substituted amino-thiol and amino-disulfide compounds, and uses thereof” (The Regents of the University of California, priority 2019, dated 2025)

Key:
Pooled human hepatocytes = assay: Hepatocyte elimination (in vitro metabolic stability, percent parent remaining by LC/MS/MS); assay type: in vitro ADME; conditions: compared with other forms
Excerpt: In vitro experiments with isotopically enriched cystamine and cysteamine in hepatocytes.
The assessment of in vitro metabolic stability provides a means to measure the susceptibility of a test compound to biotransformation by the liver. While liver microsomes primarily assess cytochrome P450 system-mediated metabolism (phase I metabolism), hepatocytes represent a complete, undisrupted metabolic system, including cofactors, and thus assess both phase I and phase II metabolism. In all cases, the metabolic stability of test compounds was determined by monitoring, via LC/MS/MS, the percent parent compound remaining versus time of incubation in human hepatocytes.
Pooled human hepatocytes (catalog number HMCS10, ThermoFischer Scientific) were thawed according to the manufacturers instructions. Thawed hepatocytes were washed by centrifugation and replated in Williams' Medium E supplemented with Heptocyte Plating Supplement Pack, Serum-containing.
Cells were diluted to 1,000,000 per ml in maintenance media (Williams' E Media supplemented with Hepatocyte Maintenance Supplement Pack, Serum-free). 500 μl of cell suspension was added to each well of a microtiter plate containing 500 μl of the deuterated test agent and placed on an orbital shaker at 120 rpm at 37 C. At the appropriate time point 50 μl aliquots were removed from the well and added to 50 μl of ice cold ethyl acetate and vortexed for 5 min and froze until chromatography analysis.

cystinotic fibroblasts [1] = assay: Cystine depletion during constant drug exposure in cystinotic fibroblasts; assay type: cell-based, human; conditions: 100 uM constant exposure, 0-5 h; vs cystamine
Experimental: (§1) In vitro experiments with isotopically enriched cystamine in cystinotic fibroblasts. Fibroblasts from a de-identified cystinotic patient were split 3× from 2 plates into 36 plates. Three different drugs were used for the experiments: cystamine (non-labeled), d2-cystamine, and d4-cystamine. There were two time series for each drug. The first was with constant drug incubation and included: 0, 10 min, 30 min, 1 h, 3 h, and 5 h. The other series included a washout after 3 h drug incubation, using fresh media following a PBS wash, and included the timepoints: 0, 30 min, 1 h, 3 h, 5 h, and 17 h. A direct quench and extraction technique were used for harvesting all cells to minimize further oxidation and metabolism. This included 2× washes with PBS that included 5 mM N-ethylmaleimide for trapping free thiol groups, and then scraping the plates with an acidified organic solvent extraction solution containing both d4-cystine and d4-cysteamine (plus d-8 cystamine) as internal standards. All samples were run on an API 4500 triple quadrupole LC-MS/MS, with selective reaction monitoring (SRM/MRM) for the following compounds of interest: cystine, NEM-cysteamine, NEM-cysteine, cystamine, and 2-(methylthio)ethylamine. All data fit well to single exponential curves (either decay or association), except where mentioned.
Following incubation, cells were washed 2× in PBS containing N-ethylmaleimide.
(§2) Fibroblasts from a de-identified cystinotic patient were split 3× from 2 plates into 18 plates. Two different drugs were used for the experiments: D4n-cystamine, and D8-cystamine. There were two time series for each drug. The first was with constant drug incubation and included: 0, 15 min, 30 min, 1 hr, and 3 hr. The other series included a washout after 3 hours of drug incubation, using fresh media following a PBS wash, and included the time-points: 0, 1 hr, 3 hr, and 16 hr. A direct quench and extraction technique was used for harvesting all cells to minimize further oxidation and metabolism. […] All samples were run on an API 4500 triple quadruple LC-MS/MS, with selective reaction monitoring (SRM/MRM) for the following compounds of interest: cystine, NEM-cysteamine, NEM-cysteine, and cystamine. All data fit well to single exponential curves (either decay or association), except where mentioned.

cystinotic fibroblasts [2] = assay: Cystine re-accumulation after washout in cystinotic fibroblasts; assay type: cell-based, human; conditions: 100 uM for 3 h, then drug-free media up to 17 h; vs cystamine
Experimental: as §1
Cystine measurement after washout: Fibroblast cultures were exposed to 100 uM cystamine/d2-cystamine/d4-cystamine for 3 h. Following incubation, cells were washed with PBS, and then incubated with regular media (containing FBS) for the following timepoints: 0 min, 30 min, 1 h, 3 h, 5 h, and 17 h. Cells were harvested identically as described previously.
as §2
Fibroblast cultures were exposed to 50 μM cystamine (D8 or D4n) for 3 hours. Following incubation, cells were washed with PBS and then incubated with regular mediate containing FBS for 1 h, 3 h, and 16 h. Cells were harvested as above. […] Cystine reaccumulation between D4n-cystamine and D8-cystamine are very similar, indicating similar levels of drug remaining during the washout timepoints (FIG. 15).

[3] = test system: C57BL/6 male mice on CDAHFD diet; assay: In vivo NASH model, prevention phase (drug in drinking water, 8 weeks); conditions: about 200 mg/kg/day in drinking water, n=8 per group
Experimental: In vivo NASH Models. NASH models from normal C57BL/6 male mice on CDAHFD diet (choline deficient, L-amino acid defined, high fat diet with restricted amount of methionine) were used. Two deuterated cystamine molecules were tested:
Two phase study was performed: (1) A prevention and (2) a treatment phase. 48 Mice were separated into nine groups of mice as described below. Histology at end of each study was performed looking for specific features of NASH (steatohepatitis, ballooning, fibrosis). The primary endpoint was plasma ALT measurement. Gene expression studies for fibrosis, inflammation were also performed.
Drug (D2 or D4) was administered in drinking water at a concentration to deliver animals about 200 mg/kg/day of drug. Daily weight. Volume of fluid drunk/day was also measured.
Prevention Phase. Group 1: Control mice on CDAHFD for 8 weeks. Blood drawn at 0, 4, and 8 weeks. Group 2: Mice on CDAHFD plus D2 at 200 mg/kg/day for 8 weeks. Blood drawn at 0, 4, and 8 weeks. Group 3: Mice on CDAHFD plus D4 at 200 mg/kg/day for 8 weeks. Blood drawn at 0, 4, and 8 weeks. Group 4: Control mice (n=4) continue on CDAHFD for 2 weeks. Blood at baseline and at 2 weeks. Liver histology at 2 weeks. Group 5: Mice (n=4) on CDAHFD for 2 weeks plus D2 at 200 mg/kg/day administered via daily gavage. Blood at 0 and 2 weeks and histology at 2 weeks. […]

- Rate of hepatocyte elimination / stability, comparison in words (Pooled human hepatocytes): most stable of the dimeric compounds
Compound: [2H]C([2H])(CN)SSC([2H])([2H])CN [D4-Cystamine, 2,2′-disulfanediylbis(ethan-2,2-d2-1-aminium) chloride]
- Rate of hepatocyte elimination / stability, comparison in words (Pooled human hepatocytes; listed as D4 cystamine): slower rate than D2 or non-deuterated cystamine
- Rate of intracellular cystine depletion, comparison in words (cystinotic fibroblasts [1]): nearly identical
- Cystine re-accumulation after washout, comparison in words (cystinotic fibroblasts [2]): very similar
- ALT levels at 8 weeks versus control group [3]: not between the control group and D4
